The target of this test is Serine/threonine-protein kinase mTOR (Mus musculus, UniProt Q9JLN9). The test can be described thus: Inhibition of mTOR in mouse TSC1-/- MEF cells assessed as inhibition of S6 Ser240/244 phosphorylation incubated for 2 hrs by fluorescence based assay. Type of test: cell-based.
For the compound `CO[C@@H]1C[C@H](C[C@@H](C)[C@@H]2CC[C@H](C)/C=C(\C)[C@@H](O)[C@@H](OC)C(=O)[C@H](C)C[C@H](C)/C=C/C=C/C=C(\C)C(N3CCS3(=O)=O)C[C@@H]3CC[C@@H](C)[C@@](O)(O3)C(=O)C(=O)N3CCCC[C@H]3C(=O)O2)CC[C@@H]1n1cnnn1` (stereo not given in full), the IC50 was 0.374 nM.
For `CO[C@@H]1C[C@H](C[C@@H](C)[C@@H]2CC[C@H](C)/C=C(\C)[C@@H](O)[C@@H](OC)C(=O)[C@H](C)C[C@H](C)/C=C/C=C/C=C(\C)C(N3CCS3(=O)=O)C[C@@H]3CC[C@@H](C)[C@@](O)(O3)C(=O)C(=O)N3CCCC[C@H]3C(=O)O2)CC[C@H]1O` (stereo not given in full), the IC50 stood at 0.17 nM.
The result for `CO[C@@H]1C[C@H](C[C@@H](C)[C@@H]2CC[C@H](C)/C=C(\C)[C@@H](O)[C@@H](OC)C(=O)[C@H](C)C[C@H](C)/C=C/C=C/C=C(\C)C(N3CCN(CCO)C3=O)C[C@@H]3CC[C@@H](C)[C@@](O)(O3)C(=O)C(=O)N3CCCC[C@H]3C(=O)O2)CC[C@H]1O` (stereo not given in full) reads 153 nM.
In the case of `CO[C@@H]1C[C@H](C[C@@H](C)[C@@H]2CC[C@H](C)/C=C(\C)[C@@H](O)[C@@H](OC)C(=O)[C@H](C)C[C@H](C)/C=C/C=C/C=C(\C)C(N3CCCS3(=O)=O)C[C@@H]3CC[C@@H](C)[C@@](O)(O3)C(=O)C(=O)N3CCCC[C@H]3C(=O)O2)CC[C@H]1OP(C)(C)=O` (stereo not given in full), the 50% inhibitory concentration (IC50) is 3.2 nM.
For `CO[C@@H]1C[C@H](C[C@@H](C)[C@@H]2CC[C@H](C)/C=C(\C)[C@@H](O)[C@@H](OC)C(=O)[C@H](C)C[C@H](C)/C=C/C=C/C=C(\C)[C@H](N3CCCS3(=O)=O)C[C@@H]3CC[C@@H](C)[C@@](O)(O3)C(=O)C(=O)N3CCCC[C@H]3C(=O)O2)CC[C@H]1O` the value was 0.274 nM.

Broadly, the IC50 is the midpoint of a concentration-inhibition curve.
